Laboratory results: patent publication US11944622B2 (Annapurna Bio, Inc., priority 2018, dated 2024)

target: T1, APJ Receptor (Homo sapiens, UniProt P35414); assay: APJ cAMP assay (DiscoverX enzyme fragment complementation; inhibition of forskolin-stimulated cAMP); type: cell-based; details: CHO-K1 cell line stably expressing the APJ Receptor; EC80 forskolin; 30 minutes at 37° C.; read-out: Potency Range (APJ cAMP EC50)
T1 sequence (P35414 1-380): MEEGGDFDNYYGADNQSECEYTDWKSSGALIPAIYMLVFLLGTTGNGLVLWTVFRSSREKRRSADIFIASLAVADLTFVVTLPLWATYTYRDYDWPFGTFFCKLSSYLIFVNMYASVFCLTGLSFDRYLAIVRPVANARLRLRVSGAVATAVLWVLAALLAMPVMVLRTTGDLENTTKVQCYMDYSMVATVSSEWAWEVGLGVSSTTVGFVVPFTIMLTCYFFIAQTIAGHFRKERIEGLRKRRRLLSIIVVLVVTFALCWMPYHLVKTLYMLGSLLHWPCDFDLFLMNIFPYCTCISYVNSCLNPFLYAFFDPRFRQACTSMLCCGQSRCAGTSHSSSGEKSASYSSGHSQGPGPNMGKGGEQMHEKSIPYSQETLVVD
Text: Activation of APJ receptor is known to inhibit forskolin-stimulated cyclic AMP (cAMP) production in cells in a pertussis toxin-sensitive manner which indicates primary coupling to the GαI subunit of the G protein heterotrimeric complex. In addition to signaling through G protein and inhibition of cAMP, APJ receptor activation also results in β-arrestin recruitment, receptor internalization and activation of extracellular-regulated kinases (ERKs).
In order to optimize functional activity directed toward Gi coupling we utilized a CHO-K 1 cell line developed by DiscoverX stably expressing the APJ Receptor. Cells expressing APJR receptor were plated in a 384-well microtiter plates and incubated overnight at 37° C. with 5% CO2 to allow the cells to attach and grow. Media was then aspirated from the cells and replaced with 15 uL 2:1 Hanks Balanced Salt Solution (HBSS)/10 mM Hepes:cAMP XS+Ab reagent. Five microliters (5 uL) of previously generated compound sample stocks at 4× final concentration in assay buffer containing 4× EC80 forskolin were then added to the cells and allowed to incubate at 37° C. for 30 minutes.
After incubation the assay signal was generated using a technology termed enzyme fragment complementation (EFC). In EFC the enzyme B-galactosidase is split into two complementary portions (EA and ED). The fragment ED is fused to cAMP and in the assay format competes with endogenous cAMP for binding to a cAMP specific antibody. Activated B-Gal is formed when exogenous EA fragment binds to free ED-cAMP (not bound to cAMP specific antibody). Activated enzyme levels are detected through conversion of B-gal chemiluminescent substrate which generates a detectable luminescence signal and read on standard microtiter plate.
The methodology for detection of cAMP using EFC requires incubation with 20 uL of cAMP XS+ED/CL lysis cocktail for one hour followed by incubation with 20 uL cAMP XS+EA reagent for three hours at room temperature. Microplates were read following signal generation with a PerkinElmer Envision instrument utilizing chemiluminescent signal detection.
Compound activity was analyzed using CBIS data analysis suite (ChemInnovation, CA). Percentage activity was calculated using the following formula: % Activity=100%×(1−(mean RLU of test sample−mean RLU of Max control)/(mean RLU of vehicle control−mean RLU of Max control))

First: COc1cccc(OC)c1-n1c(-c2cccc(OCC(F)(F)F)n2)nc2ncc(NS(C)(=O)=O)nc21 [Example 55, N-(1-(2,6-dimethoxyphenyl)-2-(6-(trifluoroethoxy)pyridin-2-yl)-1H-imidazo[4,5-b]pyrazin-6-yl)methanesulfonamide]
Second: COc1cccc(OC)c1-n1c(-c2cccc(OC(F)(F)F)n2)nc2ncc(NS(C)(=O)=O)nc21 [Example 56, N-(1-(2,6-dimethoxyphenyl)-2-(6-(trifluoromethoxy)pyridin-2-yl)-1H-imidazo[4,5-b]pyrazin-6-yl)methanesulfonamide]
The EC50 of the first is lower: 1 to 100 nM for the first, 100 to 10000 nM for the second.

Compared with `CCOCc1nc2ncc(NS(=O)(=O)c3ccccc3)nc2n1-c1c(OC)cccc1OC` [Example 57, N-(1-(2,6-dimethoxyphenyl)-2-(ethoxymethyl)-1H-imidazo[4,5-b]pyrazin-6-yl)benzenesulfonamide], `CCOc1cccc(-c2nc3ncc(NS(=O)(=O)N(C)C)nc3n2-c2c(OC)cccc2OC)n1` [Example 76, N-(1-(2,6-dimethoxyphenyl)-2-(6-ethoxypyridin-2-yl)-1H-imidazo[4,5-b]pyrazin-6-yl)-N′,N′-dimethylsulfamide] is lower in EC50: 100 to 10000 nM for the first, 1 to 100 nM for the second.

Compared with `CCOc1cccc(-c2nc3ncc(NS(C)(=O)=O)nc3n2C(CC)CC)n1` [Example 58, N-(2-(6-ethoxypyridin-2-yl)-1-(pentan-3-yl)-1H-imidazo[4,5-b]pyrazin-6-yl)methanesulfonamide], `CCOc1cccc(-c2nc3ncc(NS(C)(=O)=O)nc3n2C(C)C)n1` [Example 59, N-(2-(6-ethoxypyridin-2-yl)-1-isopropyl-II-1-imidazo[4,5-b]pyrazin-6-yl)methanesulfonamide] is higher in EC50: 1 to 100 nM for the first, 100 to 10000 nM for the second. The first is the more potent here.

`CCOc1cccc(-c2nc3ncc(NS(=O)(=O)CCC(C)(C)O)nc3n2-c2c(OC)cccc2OC)n1` [Example 60, N-(1-(2,6-dimethoxyphenyl)-2-(6-ethoxypyridin-2-yl)-1H-imidazo[4,5-b]pyrazin-6-yl)-3-hydroxy-3-methylbutane-1-sulfonamide] and `CCOc1cccc(-c2nc3ncc(NS(=O)(=O)CC(C)(C)O)nc3n2-c2c(OC)cccc2OC)n1` [Example 70] fall in the same range of EC50: 1 to 100 nM for the first, 1 to 100 nM for the second.

`CCOc1cccc(-c2nc3ncc(NS(=O)(=O)CC4(O)CC4)nc3n2-c2c(OC)cccc2OC)n1` [Example 61, N-(1-(2,6-dimethoxyphenyl)-2-(6-ethoxypyridin-2-yl)-1H-imidazo[4,5-b]pyrazin-6-yl)-1-(1-hydroxycyclopropyl)methanesulfonamide] and `CCOc1cccc(-c2nc3nc(NS(=O)(=O)CC4(O)CC4)cnc3n2-c2c(OC)cccc2OC)n1` [Example 62, N-(1-(2,6-dimethoxyphenyl)-2-(6-ethoxypyridin-2-yl)-1H-imidazo[4,5-b]pyrazin-5-yl)-1-(1-hydroxycyclopropyl)methanesulfonamide] fall in the same range of EC50: 1 to 100 nM for the first, 1 to 100 nM for the second.

`CCOc1cccc(-c2nc3ccc(NS(C)(=O)=O)nc3n2-c2c(OC)cccc2OC)n1` [Example 63, N-(3-(2,6-dimethoxyphenyl)-2-(6-ethoxypyridin-2-yl)-3H-imidazo[4,5-b]pyridin-5-yl)methanesulfonamide] and `CCOc1cccc(-c2nc3nc(Cl)c(NS(C)(=O)=O)nc3n2-c2c(OC)cccc2OC)n1` [Example 64, N-(5-chloro-1-(2,6-dimethoxyphenyl)-2-(6-ethoxypyridin-2-yl)-1H-imidazo[4,5-b]pyrazin-6-yl)methanesulfonamide] fall in the same range of EC50: 1 to 100 nM for the first, 1 to 100 nM for the second.

`CCOc1cccc(-c2nc3nc(CC4CC4)c(NS(C)(=O)=O)nc3n2-c2c(OC)cccc2OC)n1` [Example 65, N-(5-(cyclopropylmethyl)-1-(2,6-dimethoxyphenyl)-2-(6-ethoxypyridin-2-yl)-1H-imidazo[4,5-b]pyrazin-6-yl)methanesulfonamide] and `CCOc1cccc(-c2nc3nc(CCC4CC4)c(NS(C)(=O)=O)nc3n2-c2c(OC)cccc2OC)n1` [Example 66, N-(5-(2-cyclopropylethyl)-1-(2,6-dimethoxyphenyl)-2-(6-ethoxypyridin-2-yl)-1H-imidazo[4,5-b]pyrazin-6-yl)methanesulfonamide] cannot be ordered by EC50: less than 1 nM for the first, less than 1 nM for the second.

Compared with `CCOc1cccc(-c2nc3ncc(NCC4CC4)nc3n2-c2c(OC)cccc2OC)n1` [Example 67, N-(cyclopropylmethyl)-1-(2,6-dimethoxyphenyl)-2-(6-ethoxypyridin-2-yl)-1H-imidazo[4,5-b]pyrazin-6-amine], `CCOc1cccc(-c2nc3ncc(NS(=O)(=O)N(C)C4CC4)nc3n2-c2c(OC)cccc2OC)n1` [Example 77, N-(1-(2,6-dimethoxyphenyl)-2-(6-ethoxypyridin-2-yl)-1H-imidazo[4,5-b]pyrazin-6-yl)-N′-methyl-N′-cyclopropylsulfamide] is lower in EC50: 1 to 100 nM for the first, less than 1 nM for the second.

`CCOc1cccc(-c2nc3ncc(NS(C)(=O)=O)nc3n2-c2c(OC)ccnc2OC)n1` [Example 68, N-(1-(2,4-dimethoxypyridin-3-yl)-2-(6-ethoxypyridin-2-yl)-1H-imidazo[4,5-b]pyrazin-6-yl)methanesulfonamide] and `CCOc1cccc(-c2nc3ncc(NS(=O)(=O)Cc4cnccn4)nc3n2-c2c(OC)cccc2OC)n1` [Example 69, N-(1-(2,6-dimethoxyphenyl)-2-(6-ethoxypyridin-2-yl)-1H-imidazo[4,5-b]pyrazin-6-yl)-1-(pyrazin-2-yl)methanesulfonamide] fall in the same range of EC50: 1 to 100 nM for the first, 1 to 100 nM for the second.

`CCOc1cccc(-c2nc3ncc(NS(=O)(=O)C[C@H]4CCN(C)C(=O)C4)nc3n2-c2c(OC)cccc2OC)n1` [Example 71, (S)—N-(1-(2,6-Dimethoxyphenyl)-2-(6-ethoxypyridin-2-yl)-1H-imidazo[4,5-b]pyrazin-6-yl)-1-(1-methyl-2-oxopiperidin-4-yl)methanesulfonamide] and `CCOc1cccc(-c2nc3ncc(NS(=O)(=O)C[C@@H]4CCN(C)C(=O)C4)nc3n2-c2c(OC)cccc2OC)n1` [Example 72, (R)—N-(1-(2,6-dimethoxyphenyl)-2-(6-ethoxypyridin-2-yl)-1H-imidazo[4,5-b]pyrazin-6-yl)-1-(1-methyl-2-oxopiperidin-4-yl)methanesulfonamide] cannot be ordered by EC50: less than 1 nM for the first, less than 1 nM for the second.

First: CCOc1cccc(-c2nc3ncc(NS(=O)(=O)N4CCCC4)nc3n2-c2c(OC)cccc2OC)n1 [Example 73, N-(1-(2,6-dimethoxyphenyl)-2-(6-ethoxypyridin-2-yl)-1H-imidazo[4,5-b]pyrazin-6-yl)pyrrolidine-1-sulfonamide]
Second: CCOc1cccc(-c2nc3ncc(NS(=O)(=O)N4CCCCC4)nc3n2-c2c(OC)cccc2OC)n1 [Example 75, N-(1-(2,6-dimethoxyphenyl)-2-(6-ethoxypyridin-2-yl)-1H-imidazo[4,5-b]pyrazin-6-yl)piperidine-1-sulfonamide]
The EC50 of the first is higher: 1 to 100 nM for the first, less than 1 nM for the second. The second is the more potent here.

First: CCOc1cccc(-c2nc3ncc(NS(=O)(=O)N4CCNCC4)nc3n2-c2c(OC)cccc2OC)n1 [Example 74, N-(1-(2,6-Dimethoxyphenyl)-2-(6-ethoxypyridin-2-yl)-1H-imidazo[4,5-b]pyrazin-6-yl)piperazine-1-sulfonamide]
Second: CCOc1cccc(-c2nc3ncc(NS(=O)(=O)Cc4ccc(F)cn4)nc3n2-c2c(OC)cccc2OC)n1 [Example 78, N-(1-(2,6-dimethoxyphenyl)-2-(6-ethoxypyridin-2-yl)-1H-imidazo[4,5-b]pyrazin-6-yl)-1-(5-fluoropyridin-2-yl)methanesulfonamide]
The EC50 of the first is higher: 1 to 100 nM for the first, less than 1 nM for the second.

`CCOc1cccc(-c2nc3ncc(NS(=O)(=O)Cc4ncc(F)cn4)nc3n2-c2c(OC)cccc2OC)n1` [Example 79, N-(1-(2,6-dimethoxyphenyl)-2-(6-ethoxypyridin-2-yl)-1H-imidazo[4,5-b]pyrazin-6-yl)-1-(5-fluoropyrimidin-2-yl)methanesulfonamide] and `CCOc1cccc(-c2nc3ncc(NS(=O)(=O)Cc4ncc(C)cn4)nc3n2-c2c(OC)cccc2OC)n1` [Example 80, N-(1-(2,6-dimethoxyphenyl)-2-(6-ethoxypyridin-2-yl)-1H-imidazo[4,5-b]pyrazin-6-yl)-1-(5-methylpyrimidin-2-yl)methanesulfonamide] cannot be ordered by EC50: less than 1 nM for the first, less than 1 nM for the second.
